{"source": "patent US9944607B2", "about": "“Thiohydantoin derivatives and uses thereof” (Whitehead Institute for Biomedical Research, priority 2012, dated 2018)", "key": {"Candida albicans CaCi-2": {"system": "Candida albicans CaCi-2", "test": "Primary assay: C. albicans CaCi-2 growth inhibition (Alamar Blue)", "format": "cell-based", "conditions": "for IC50: Candida albicans"}, "Candida albicans CaCi-17": {"system": "Candida albicans CaCi-17", "test": "Primary assay: C. albicans CaCi-17 growth inhibition (Alamar Blue)", "format": "cell-based", "conditions": "for IC50: Candida albicans"}, "[1]": {"system": "NIH-3T3 mammalian fibroblasts", "test": "Counterscreen mammalian cell toxicity assay (Alamar Blue)", "format": "cell-based, murine", "conditions": "for IC50: Mus musculus", "procedure,_shortened": "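Quiescent NIH-3T3 fibroblasts, cultured overnight, exposed to 100 nL pinned compound for 48 h at 37° C, 5% CO2. Alamar Blue added to 1:200 final, 2-3 h further incubation; fluorescence (RFU) read as relative cell growth.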"}, "C. glabrata (ATCC 2001)": {"system": "C. glabrata (ATCC 2001)", "test": "Secondary C. glabrata inhibition in glucose media (OD600)", "format": "cell-based, Candida glabrata", "conditions": "Nakaseomyces glabratus", "text": "(§1) Cell Lines. • Candida albicans CaCi-2; a drug-resistant clinical isolate was provided by the Whitehead Institute (Redding et al., Clin. Infect. Dis. 1994, 18(2):240-2). This strain was used for the primary assay. • Candida albicans CaCi-17; a strongly drug-resistant clinical isolate was provided by the Whitehead Institute (Redding et al., Clin. Infect. Dis. 1994, 18(2):240-2). This strain was used for the primary assay • Saccharyomyces cerevisiae W303-1a (ATCC 208352); a well-characterized Saccharomyces strain used for determination of glycolytic vs. respiratory metabolism, as well as in the mitochondrial disruption assay. • Candida glabrata (ATCC 2001); used for determination of glycolytic vs. respiratory metabolism. • NIH-3T3 mammalian fibroblasts (ATCC; CRL no.1658); used for mammalian toxicity assays. […]\n(§2) Saccharomyces, while not a major human pathogen, is a useful lab model with well-developed genetic tools available. Candida glabrata is an increasingly prominent clinical problem for immune-compromised patients but with fewer genetic tools available with which to study it. These organisms can utilize alternative metabolic pathways to support growth and survival depending on the carbon source. By comparing the concentration-dependent inhibition of yeast growth in glycerol relative to glucose media, a quantitative assessment of a compound's ability to disrupt respiration can be determined. […].\n(§3) Procedures • Use a Thermo Combi nL to dispense 20 μL/well of assay media into all wells. • Add 2 μL of Amphotericin B to control wells. • Pin 100 nL of test compound from compound plates into assay plates using a CyBi-Well pin tool. • Dispense 20 μL/well of culture into the assay media in all wells. • Incubate the plates in a humidified (90% humidity) Liconic incubator at 37° C. without agitation for 48 hours. • Shake plates briefly. • Read OD600 of wells on a standard plate reader as measure of relative fungal growth. Envision (Perkin Elmer) plate reader settings: Ex Photometric 600, Top read. Secondary Glucose Assay Protocol (AID 623971, 623967, 624013, 624025) Materials and Reagents\n(§4) Clear, flat bottom, black 384-well plates (Corning, Catalog No. 3712BC; Lot No. 35808016); Amphotericin B (Sigma, Catalog no. A2411) 15 mM stock solution in DMSO; Pen/Strep (Gibco, Catalog No. 10378-016; Lot no21040170) 100× in PBS.\n(§5) Synthetic defined growth medium. Complete Supplement Mixture; (Sunrise Science, Catalog No. 1001-100); Yeast Nitrogen Base without ammonium sulfate (MP Biomedicals, Catalog No. 4027-012); Glucose (Sigma, Catalog No. G7021). • Prepare medium by dissolving 0.79 g of Complete Supplement Mixture and 1.7 g of Yeast Nitrogen Base in 800 mL of water. • Add 20 g of glucose. Adjust final volume to 1000 mL. Filter sterilize.\n(§6) Fungal Inoculum. Test Strains: C. glabrata (ATCC 2001) and Saccharomyces cerevisiae W303. • Inoculate […] of yeast from cryopreserved stock into a 250 mL shaker flask containing 20 mL of growth medium. Shake at 30° C. overnight (about 16 hours). • Read OD 600 of 1 mL of fungal culture in a cuvette using a standard optical density reader (Eppendorf BioPhotometer Plus), with growth medium as a background blank. • Dilute to desired volume of fungal inoculum to produce an OD600 reading of 0.005 (S. cerevisiae) or 0.004 (C. glabrata).\nas §3, with “read. 4.5.” for “read.”, “Mitochondrial Disruption” for “Glucose”, “Assay” for “Assay Protocol”, “No. 624062” for “623971, 623967, 624013, 624025) Materials”, “624068)” for “Reagents”"}, "[2]": {"system": "Saccharomyces cerevisiae W303", "test": "Secondary S. cerevisiae inhibition in glucose media (OD600)", "format": "cell-based", "conditions": "Saccharomyces cerevisiae", "text": "as §1, §2, §3, §4, §5, §6\nas §3, with “read. 4.5.” for “read.”, “Mitochondrial Disruption” for “Glucose”, “Assay” for “Assay Protocol”, “No. 624062” for “623971, 623967, 624013, 624025) Materials”, “624068)” for “Reagents”"}, "[3]": {"test": "Solubility in PBS pH 7.4 with 1% DMSO", "conditions": "for solubility at 24 h: pH 7.4, aqueous buffer, kinetic from dmso stock; for PBS Solubility: PBS pH 7.4 with 1% DMSO, 24 hours, room temperature", "procedure,_shortened": "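Compounds at 100 μM in duplicate in PBS pH 7.4 containing 1% DMSO, shaken 24 hours at room temperature. Concentration measured by UPLC-MS with SIR detection, fitted to a two-point calibration from matching 100% DMSO samples.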"}, "[4]": {"conditions": "phosphate buffered saline with 1% DMSO"}}, "note": "Read-outs that look alike come from different tables or passages of the source.", "data": [{"smiles": "CCOC(=O)N1C(=O)C2(CCCCC2)N(c2ccc(F)cc2)C1=S", "note": "[CID 56604860, Ethyl 1-(4-fluorophenyl)-4-oxo-2-thioxo-1,3-diazaspiro[4.5]decane-3-carboxylate]", "values": [{"measurement": "Fold Selective (Anti-target IC50/Target IC50), fibroblast toxicity vs CaCi-2 growth inhibition", "setting": "Candida albicans CaCi-2; Table 12", "result": ">650", "unit": "x"}, {"measurement": "IC50", "setting": "Candida albicans CaCi-17; CACI17, read-out: C. albicans CaCi-17 growth inhibition IC50", "result": 1, "unit": "µM"}, {"measurement": "Fold Selective (Anti-target IC50/Target IC50), fibroblast toxicity vs CaCi-17 growth inhibition", "setting": "Candida albicans CaCi-17; Table 12", "result": ">37", "unit": "x"}, {"measurement": "IC50", "setting": "[1]; NIH3T3, read-out: Murine 3T3 fibroblasts growth inhibition (fibroblast toxicity) IC50", "result": "> 26", "unit": "µM"}, {"measurement": "Toxicity against mammalian fibroblasts (in words)", "setting": "[1]; at concentrations up to 26 μM", "result": "no apparent toxicity"}, {"measurement": "IC50", "setting": "C. glabrata (ATCC 2001); ATCC2001, read-out: Growth inhibition of C. glabrata on glucose IC50", "result": "> 3", "unit": "µM"}, {"measurement": "IC50", "setting": "[2]; W303, read-out: Growth inhibition of S. cerevisiae on glucose IC50", "result": "> 3", "unit": "µM"}, {"measurement": "solubility at 24 h", "setting": "[3]; [4]", "result": 1.1, "unit": "µM"}]}, {"smiles": "CCOC(=O)N1C(=O)C2(CCCCC2)N(c2ccc(C)cc2)C1=S", "note": "[compound 3889161]", "values": [{"measurement": "IC50", "setting": "Candida albicans CaCi-2; CACI2, 48 h, read-out: Growth Inhibition Activity, IC50 (μM), C. albicans (n = 3) CaCi-2", "result": 0.3, "unit": "µM"}, {"measurement": "IC50", "setting": "Candida albicans CaCi-17; CACI17, 48 h, read-out: Growth Inhibition Activity, IC50 (μM), C. albicans (n = 3) CaCi-17", "result": 8.5, "unit": "µM"}, {"measurement": "Growth Inhibition Activity, IC50 (μM), 3T3 Fibroblasts (n = 1)", "setting": "[1]; Table 3, n = 1, 48 hours, tested up to 26 μM", "result": "Inactive"}, {"measurement": "Growth Inhibition Activity, IC50 (μM), 3T3 Fibroblasts (n = 1)", "setting": "[1]; Table 4, n = 1, 48 hours, tested up to 26 μM", "result": "Inactive"}, {"measurement": "Growth Inhibition Activity, IC50 (μM), 3T3 Fibroblasts (n = 1)", "setting": "[1]; Table 5, n = 1, 48 hours, tested up to 26 μM", "result": "Inactive"}, {"measurement": "Growth Inhibition Activity, IC50 (μM), 3T3 Fibroblasts (n = 1)", "setting": "[1]; Table 6, n = 1, 48 hours, tested up to 26 μM", "result": "Inactive"}, {"measurement": "Growth Inhibition Activity, IC50 (μM), 3T3 Fibroblasts (n = 1)", "setting": "[1]; Table 7, n = 1, 48 hours, tested up to 26 μM", "result": "Inactive"}, {"measurement": "IC50", "setting": "C. glabrata (ATCC 2001); ATCC2001, 48 h, read-out: Growth Inhibition Activity, IC50 (μM), C. glabrata (n = 3) On glucose", "result": "> 3", "unit": "µM"}, {"measurement": "IC50", "setting": "[2]; W303, 48 h, read-out: Growth Inhibition Activity, IC50 (μM), S. cerevisiae (n = 3) On glucose", "result": "> 3", "unit": "µM"}, {"measurement": "PBS Solubility", "setting": "[3]; Table 4", "result": "<1.0", "unit": "µM"}, {"measurement": "PBS Solubility", "setting": "[3]; Table 5", "result": "<1.0", "unit": "µM"}, {"measurement": "PBS Solubility", "setting": "[3]; Table 6", "result": "<1.0", "unit": "µM"}, {"measurement": "PBS Solubility", "setting": "[3]; Table 7", "result": "<1.0", "unit": "µM"}, {"measurement": "solubility at 24 h", "setting": "[3]; [4]", "result": "< 1", "unit": "µM"}]}, {"smiles": "CCOC(=O)N1C(=O)C2(CCCCC2)N(c2cccc(C)c2)C1=S", "note": "[compound 56604823]", "values": [{"measurement": "IC50", "setting": "Candida albicans CaCi-2; CACI2, Table 4, n = 3, 48 hours, tested up to 26 μM, read-out: Growth Inhibition Activity, IC50 (μM), C. albicans (n = 3) CaCi-2", "result": 0.2, "unit": "µM"}, {"measurement": "IC50", "setting": "Candida albicans CaCi-17; CACI17, Table 4, n = 3, 48 hours, tested up to 26 μM, read-out: Growth Inhibition Activity, IC50 (μM), C. albicans (n = 3) CaCi-17", "result": 8.2, "unit": "µM"}, {"measurement": "IC50", "setting": "[1]; NIH3T3, read-out: Growth Inhibition Activity, IC50 (μM), 3T3 Fibroblasts (n = 1), Table 4, n = 1, 48 hours, tested up to 26 μM", "result": 24.2, "unit": "µM"}, {"measurement": "IC50", "setting": "C. glabrata (ATCC 2001); ATCC2001, Table 8, n = 3, glucose media, 48 hours, tested up to 3 μM, read-out: Growth Inhibition Activity, IC50 (μM), C. glabrata (n = 3) On glucose", "result": "> 3", "unit": "µM"}, {"measurement": "IC50", "setting": "[2]; W303, Table 8, n = 3, glucose media, 48 hours, tested up to 3 μM, read-out: Growth Inhibition Activity, IC50 (μM), S. cerevisiae (n = 3) On glucose", "result": "> 3", "unit": "µM"}, {"measurement": "solubility at 24 h", "setting": "[3]; [4]", "result": 2.6, "unit": "µM"}]}, {"smiles": "C/C=C/C1[C@H]2C[C@@H](C)CC[C@@H]2C(C)=C[C@H]1C(=O)c1c(O)c(-c2ccc(O)cc2)c[nH]c1=O", "note": "(stereo partly shown) [ilicicolin H, reference compound]", "values": [{"measurement": "IC50", "setting": "Candida albicans CaCi-2; CACI2, Tables 9, 10, 12, AID 623899, read-out: C. albicans CaCi-2 growth inhibition IC50", "result": "> 3", "unit": "µM"}, {"measurement": "IC50", "setting": "Candida albicans CaCi-17; CACI17, Tables 9, 10, 12, AID 623897, read-out: C. albicans CaCi-17 growth inhibition IC50", "result": "> 3", "unit": "µM"}, {"measurement": "IC50", "setting": "[1]; NIH3T3, Tables 9, 10, 12, AID 602394, read-out: Murine 3T3 fibroblasts growth inhibition (fibroblast toxicity) IC50", "result": 10, "unit": "µM"}, {"measurement": "IC50", "setting": "C. glabrata (ATCC 2001); ATCC2001, figure legends and Tables 9, 10, 13, AID 623967, read-out: Growth inhibition of C. glabrata on glucose IC50", "result": "> 3", "unit": "µM"}, {"measurement": "IC50", "setting": "[2]; W303, figure legends and Tables 9, 10, 13, AID 623971, read-out: Growth inhibition of S. cerevisiae on glucose IC50", "result": "> 3", "unit": "µM"}, {"measurement": "solubility at 24 h", "setting": "[3]", "result": "< 1", "unit": "µM"}]}]}
